The assay has as its target T1, human recombinant USP30 (Homo sapiens, UniProt Q70CQ3).
T1 construct: purchased Boston Biochem E-582
T1 sequence (Q70CQ3 1-517): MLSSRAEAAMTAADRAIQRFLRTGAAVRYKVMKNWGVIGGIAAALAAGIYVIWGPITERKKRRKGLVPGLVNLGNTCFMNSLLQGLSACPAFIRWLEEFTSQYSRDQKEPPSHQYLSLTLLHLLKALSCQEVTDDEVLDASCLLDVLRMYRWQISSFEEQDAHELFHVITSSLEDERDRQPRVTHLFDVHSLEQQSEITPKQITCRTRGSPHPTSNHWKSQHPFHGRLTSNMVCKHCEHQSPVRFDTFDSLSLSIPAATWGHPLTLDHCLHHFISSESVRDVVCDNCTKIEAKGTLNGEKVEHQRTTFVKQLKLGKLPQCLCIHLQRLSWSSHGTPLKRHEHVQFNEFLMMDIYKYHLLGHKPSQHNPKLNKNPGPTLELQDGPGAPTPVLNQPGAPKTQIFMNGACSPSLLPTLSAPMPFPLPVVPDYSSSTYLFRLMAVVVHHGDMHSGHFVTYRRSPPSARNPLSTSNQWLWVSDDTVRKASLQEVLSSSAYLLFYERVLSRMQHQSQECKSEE
The assay can be described thus: Ubiquitin-Rhodamine 110 Assay for USP30 Activity (USP30 Inhibitor Biochemical Assay). The settings on record: 0.2 nM USP30, 25 nM Ub-Rh110, 30 min preincubation, 30 min at room temperature; read-out: USP30 potency range (USP30 biochemical IC50 assay, IC50 ranges). As for the experimental part: Example A: Biochemical Assay: Ubiquitin-Rhodamine 110 Assay for USP30 Activity (USP30 Inhibitor Biochemical Assay)
The assay was performed in a final volume of 9 μL in assay buffer containing 20 mM Tris-HCl (pH 8.0, (1M Tris-HCl, pH 8.0 solution; Corning 46-031-CM)), 1 mM GSH (L-glutathione reduced, Sigma-Aldrich, G4251-100G), 0.03% BGG (0.22 μM filtered, Sigma, G7516-25G), and 0.01% Triton X-100 (Sigma, T9284-10L). Nanoliter quantities of 10-point, 3-fold serial dilution in DMSO were pre-dispensed into 1536 assay plates (Corning, #3724BC) for a final test concentration of 25 μM to 1.3 nM, top to lowest dose, respectively. Concentration and incubation times were optimized for the maximal signal-to-background while maintaining initial velocity conditions at a fixed substrate concentration. The final concentration of USP30 (human recombinant USP30, Boston Biochem, cat. # E-582) in the assay was 0.2 nM. […] 3 μL of 2×USP30 was added to assay plates (pre-stamped with compound), preincubated for 30 minutes and then treated with 3 μL of 2×Ub-Rh110. Plates were incubated for 30 minutes at room temperature before addition of 3 μL of stop solution (final concentration of 10 mM citric acid (Sigma, 251275-500G)). Fluorescence was read on the Envision (excitation at 485 nm and emission at 535 nm; Perkin Elmer) or on the PheraSTAR (excitation at 485 nm and emission at 535 nm; BMG Labtech).
For all assay formats data were reported as percent inhibition compared with control wells based on the following equation: % inh=1−((FLU−AveLow)/(AveHigh−AveLow)) where FLU=measured Fluorescence, AveLow=average Fluorescence of no enzyme control (n=16), and AveHigh=average Fluorescence of DMSO control (n=16). IC50 values were determined by curve fitting of the standard 4 parameter logistic fitting algorithm included in the Activity Base software package: IDBS XE Designer Model205. Data is fitted using the Levenburg Marquardt algorithm.

Bounds are passed on as bounds.

By IC50 is commonly meant the concentration at which inhibition is half-maximal.

Take `N#CN[C@@H]1C[C@H]1C(=O)Nc1ncc(C2CCCCC2)s1` (relative stereo) [Compound 11-1, trans-2-(cyanoamino)-N-(5-cyclohexyl-1,3-thiazol-2-yl)cyclopropane-1-carboxamide]: the IC50 lay in the range of 1000 to 10000 nM.

`N#CN[C@H]1C[C@H]1C(=O)Nc1ncc(C2CCCCC2)s1` (relative stereo) [Compound 11-2, cis-2-(cyanoamino)-N-(5-cyclohexyl-1,3-thiazol-2-yl)cyclopropane-1-carboxamide]: the concentration for half-maximal inhibition (IC50) is 1000 to 10000 nM.

Take `CC1(C)CCCC[C@H]1c1ncc(NC(=O)[C@H]2C[C@H](NC#N)C2)s1` (single isomer, unassigned) [Compound 1-13]: the IC50 was 100 to 1000 nM.

Consider `N#CN[C@H]1C[C@H](C(=O)Nc2ncc([C@@H]3CCCC[C@H]3C(F)(F)F)s2)C1` (single isomer, unassigned) [Compound 1-35], for which the 50% inhibitory concentration (IC50) was in the range of 100 to 1000 nM.

`N#CN[C@H]1C[C@H](N2C[C@@H](Nc3ncc(C4CCCCC4)s3)CC2=O)C1` (single isomer, unassigned) [Compound 6-1]: the IC50 lay within 100 to 1000 nM.

Consider `CC(C)(C)c1sc(N2CC[C@]3(C[C@H](NC#N)C3)C2=O)nc1Cl` (single isomer, unassigned) [Compound 7-1, ([(2r,4s)-6-(5-tert-butyl-4-chloro-1,3-thiazol-2-yl)-5-oxo-6-azaspiro[3.4]octan-2-yl]amino)carbonitrile], for which the IC50 was < 100 nM.

Take `CC(C)(C)c1sc(NC(=O)[C@]2(Cl)C[C@@H](NC#N)C2)nc1Cl` (single isomer, unassigned) [Compound 9-1, (1s,3s)-N-(5-tert-butyl-4-chloro-1,3-thiazol-2-yl)-1-chloro-3-(cyanoamino)cyclobutane-1-carboxamide]: the half-maximal inhibitory concentration (IC50) is < 100 nM.

For the compound `CC(C)(C)c1sc(NC(=O)[C@]2(Cl)C[C@H](NC#N)C2)nc1Cl` (single isomer, unassigned) [Compound 9-2, (1r,3r)-N-(5-tert-butyl-4-chloro-1,3-thiazol-2-yl)-1-chloro-3-(cyanoamino)cyclobutane-1-carboxamide], the half-maximal inhibitory concentration (IC50) lay within 100 to 1000 nM.

Regarding `N#CN[C@H]1C[C@H](C(=O)Nc2ncc(C3CCOCC3)s2)C1` [Compound 1-1, trans-3-(cyanoamino)-N-[5-(oxan-4-yl)-1,3-thiazol-2-yl]cyclobutane-1-carboxamide], the IC50 fell in the range of 1000 to 10000 nM.

With `Cn1nc(-c2ccccc2)cc1NC(=O)[C@H]1C[C@H](NC#N)C1` [Compound 1-2, (1r,3r)-3-(cyanoamino)-N-(1-methyl-3-phenyl-1H-pyrazol-5-yl)cyclobutane-1-carboxamide], the IC50 fell in the range of 100 to 1000 nM.

In the case of `N#CN[C@H]1C[C@H](C(=O)Nc2cnc(C3CCCCC3)s2)C1` [Compound 1-3, (1r,3r)-3-(cyanoamino)-N-(2-cyclohexyl-1,3-thiazol-5-yl)cyclobutane-1-carboxamide], the IC50 was < 100 nM.

On to `CN(c1cnc(C2CCCCC2)s1)C(=O)[C@H]1C[C@H](NC#N)C1` [Compound 1-4, (1r,3r)-3-(cyanoamino)-N-(2-cyclohexyl-1,3-thiazol-5-yl)-N-methylcyclobutane-1-carboxamide], for which the half-maximal inhibitory concentration (IC50) fell in the range of 100 to 1000 nM.

Regarding `CN(c1ncc(C(C)(C)C)s1)C(=O)[C@H]1C[C@H](NC#N)C1` [Compound 1-5, (1r,3r)-N-(5-tert-butyl-1,3-thiazol-2-yl)-3-(cyanoamino)-N-methylcyclo-butane-1-carboxamide], the IC50 was in the range of 100 to 1000 nM.

Take `Cn1nc(C2CCCCC2)cc1NC(=O)[C@H]1C[C@H](NC#N)C1` [Compound 1-6, (1r,3r)-3-(cyanoamino)-N-(3-cyclohexyl-1-methyl-1H-pyrazol-5-yl)cyclobutane-1-carboxamide]: the IC50 was in the range of 100 to 1000 nM.

Take `Cc1nc(C2CCCCC2)sc1NC(=O)[C@H]1C[C@H](NC#N)C1` [Compound 1-7, (1r,3r)-3-(cyanoamino)-N-(2-cyclohexyl-4-methyl-1,3-thiazol-5-yl)cyclobutane-1-carboxamide]: the half-maximal inhibitory concentration (IC50) was 100 to 1000 nM.

With `CC(C)Oc1ccccc1-c1ncc(NC(=O)[C@H]2C[C@H](NC#N)C2)s1` [Compound 1-8, (1r,3r)-3-(cyanoamino)-N-{2-[2-(propan-2-yloxy)phenyl]-1,3-thiazol-5-yl}cyclobutane-1-carboxamide], the half-inhibitory concentration (IC50) fell in the range of 100 to 1000 nM.

`N#CN[C@H]1C[C@H](C(=O)Nc2cnc(C3CC(F)(F)C3)s2)C1` [Compound 1-9, (1r,3r)-3-(cyanoamino)-N-[2-(3,3-difluoro-cyclobutyl)-1,3-thiazol-5-yl]cyclobutane-1-carboxamide]: the IC50 lay in the range of 100 to 1000 nM.

For the compound `N#CN[C@H]1C[C@H](C(=O)Nc2nc(Cl)c(C3CCCCC3)s2)C1` [Compound 1-10, (1r,3r)-N-(4-chloro-5-cyclohexyl-1,3-thiazol-2-yl)-3-(cyanoamino)cyclo-butane-1-carboxamide], the half-inhibitory concentration (IC50) was < 100 nM.

As to `C[C@]1(C(=O)Nc2cnc(C3CCCCC3)s2)C[C@H](NC#N)C1` [Compound 1-11, (1r,3s)-3-(cyanoamino)-N-(2-cyclohexyl-1,3-thiazol-5-yl)-1-methylcyclobutane-1-carboxamide], the IC50 was < 100 nM.

As for `CC1(C)CCCC[C@@H]1c1ncc(NC(=O)[C@H]2C[C@H](NC#N)C2)s1` [Compound 1-12, (1r,3r)-3-(cyanoamino)-N-{2-[(1S)-2,2-dimethylcyclohexyl]-1,3-thiazol-5-yl}cyclobutane-1-carboxamide], the IC50 is < 100 nM.

`N#CN[C@H]1C[C@H](C(=O)Nc2sc(C3CCCCC3)nc2Cl)C1` [Compound 1-14, (1r,3r)-N-(4-chloro-2-cyclohexyl-1,3-thiazol-5-yl)-3-(cyanoamino)cyclo-butane-1-carboxamide]: the IC50 fell in the range of 100 to 1000 nM.

For the compound `CC1(C)[C@H](NC#N)C[C@H]1C(=O)Nc1cnc(C2CCCCC2)s1` [Compound 1-15, (1R,3R)-3-(cyanoamino)-N-(2-cyclohexyl-1,3-thiazol-5-yl)-2,2-dimethylcyclobutane-1-carboxamide], the IC50 lay within 100 to 1000 nM.

As for `COCc1nc(NC(=O)[C@H]2C[C@H](NC#N)C2)sc1C1CCCCC1` [Compound 1-16, (1r,3r)-3-(cyanoamino)-N-[5-cyclohexyl-4-(methoxymethyl)-1,3-thiazol-2-yl]cyclobutane-1-carboxamide], the IC50 was < 100 nM.

With `N#CN[C@H]1C[C@H](C(=O)Nc2sc(C3CCCCC3)nc2F)C1` [Compound 1-17, (1r,3r)-3-(cyanoamino)-N-(2-cyclohexyl-4-fluoro-1,3-thiazol-5-yl)cyclobutane-1-carboxamide], the 50% inhibitory concentration (IC50) lay within 100 to 1000 nM.

`N#CN[C@H]1C[C@@H](C(=O)Nc2nc(Cl)c(C3CCCCC3)s2)C1` [Compound 1-18, (1s,3s)-N-(4-chloro-5-cyclohexyl-1,3-thiazol-2-yl)-3-(cyanoamino)cyclo-butane-1-carboxamide]: the IC50 lay in the range of 100 to 1000 nM.

As to `CC(C)(C)c1sc(NC(=O)[C@H]2C[C@H](NC#N)C2)nc1Cl` [Compound 1-19, (1r,3r)-N-(5-tert-butyl-4-chloro-1,3-thiazol-2-yl)-3-(cyanoamino)cyclo-butane-1-carboxamide], the IC50 is < 100 nM.

`N#CN[C@H]1C[C@H](C(=O)Nc2ccc(Cl)c(C(F)(F)F)c2)C1` [Compound 1-20, (1r,3r)-N-[4-chloro-3-(trifluoromethyl)phenyl]-3-(cyano-amino)cyclobutane-1-carboxamide]: the IC50 lay within 1000 to 10000 nM.

As to `C[C@@H]1CCCC[C@@H]1c1cnc(NC(=O)[C@H]2C[C@H](NC#N)C2)s1` [Compound 1-21, (1r,3r)-3-(cyanoamino)-N-{5-[(1S,2R)-2-methylcyclohexyl]-1,3-thiazol-2-yl}cyclobutane-1-carboxamide], the IC50 lay within 100 to 1000 nM.

Turning to `C[C@H]1CCCC[C@H]1c1cnc(NC(=O)[C@H]2C[C@H](NC#N)C2)s1` [Compound 1-22, (1r,3r)-3-(cyanoamino)-N-{5-[(1R,2S)-2-methylcyclohexyl]-1,3-thiazol-2-yl}cyclobutane-1-carboxamide], the half-maximal inhibitory concentration (IC50) lay in the range of 100 to 1000 nM.

For the origin of these results see patent US11247987B2, “Inhibiting ubiquitin specific peptidase 30” (FORMA Therapeutics, Inc., priority 2017, dated 2022).
